From ChEMBL document CHEMBL4118177, “Valproic acid induces three novel cytotoxic secondary metabolites in Diaporthe sp., an endophytic fungus from Datura inoxia Mill” (Bioorg Med Chem Lett, 2018)
The source made the active and inactive calls. No cut-off for these calls is given here.

Experiments:
[1] = Antioxidant activity assessed as DPPH free radical scavenging activity at 6.25 uM after 30 mins in dark by spectrophotometric method relative to control; assay type: functional
[2] = Antioxidant activity assessed as DPPH free radical scavenging activity at 12.5 uM after 30 mins in dark by spectrophotometric method relative to control; assay type: functional
[3] = Antioxidant activity assessed as DPPH free radical scavenging activity after 30 mins in dark by spectrophotometric method; assay type: functional
[4] = Antioxidant activity assessed as DPPH free radical scavenging activity at 50 uM after 30 mins in dark by spectrophotometric method relative to control; assay type: functional
[5] = Antioxidant activity assessed as DPPH free radical scavenging activity at 100 uM after 30 mins in dark by spectrophotometric method relative to control; assay type: functional
[6] = Antioxidant activity assessed as DPPH free radical scavenging activity at 25 uM after 30 mins in dark by spectrophotometric method relative to control; assay type: functional
PC-3 = assay: Cytotoxicity against human PC3 cells assessed as reduction in cell viability after 48 hrs by MTT assay; assay type: functional, cell-based; conditions: PC-3, 48 h
MIA PaCa-2 = assay: Cytotoxicity against human MIAPaCa2 cells assessed as reduction in cell viability after 48 hrs by MTT assay; assay type: functional, cell-based; conditions: MIA PaCa-2, 48 h
Staphylococcus aureus = assay: Antibacterial activity against Staphylococcus aureus ATCC 25923 at 62.5 uM after 24 hrs; assay type: functional, organism-based
Escherichia coli = assay: Antibacterial activity against Escherichia coli ATCC 25922 at 62.5 uM after 24 hrs; assay type: functional, organism-based
Pseudomonas aeruginosa = assay: Antibacterial activity against Pseudomonas aeruginosa ATCC 27853 at 62.5 uM after 24 hrs; assay type: functional, organism-based
MCF7 = assay: Cytotoxicity against human MCF7 cells assessed as reduction in cell viability after 48 hrs by MTT assay; assay type: functional, cell-based; conditions: MCF7, 48 h
T47D = assay: Cytotoxicity against human T47D cells; assay type: functional, cell-based

SMILES | EC50 [3] [µM] | Activity [1] [%] | Activity [2] [%] | Activity [4] [%] | Activity [5] [%] | Activity [6] [%] | IC50 (PC-3) [µM] | IC50 (MIA PaCa-2) [µM] | Activity (Staphylococcus aureus) | Activity (Escherichia coli) | Activity (Pseudomonas aeruginosa) | IC50 (MCF7) [µM] | IC50 (T47D) [µM]
CC(=O)O[C@H]1C(=O)[C@@]2(C)[C@H]([C@H](OC(=O)c3ccccc3)[C@]3(O)C[C@H](OC(=O)[C@H](O)[C@@H](NC(=O)c4ccccc4)c4ccccc4)C(C)=C1C3(C)C)[C@]1(OC(C)=O)CO[C@@H]1C[C@@H]2O [PACLITAXEL] | – | – | – | – | – | – | 0.007 | 0.006 | – | – | – | – | –
O=C(O)c1cn(C2CC2)c2cc(N3CCNCC3)c(F)cc2c1=O | – | – | – | – | – | – | – | – | Active | Active | Active | – | –
CCC[C@@H]1C[C@H](O)[C@@H](OC)/C=C/C=C\C(=O)O1 | > 100 | 2.37 | 4.04 | 8.13 | 10 | 7.12 | 22 | 34 | inactive | inactive | inactive | > 50 | –
CCC[C@@H]1C[C@H](O)[C@@H](O)/C=C/C=C\C(=O)O1 | > 100 | 35 | 36.6 | 38.5 | 39.1 | 37.4 | 18 | 32 | inactive | inactive | inactive | 29 | 7

More lines, in order of falling EC50 [3], values ahead:

EC50 [3] [µM] | SMILES | Activity [1] [%] | Activity [2] [%] | Activity [4] [%] | Activity [5] [%] | Activity [6] [%] | IC50 (PC-3) [µM] | IC50 (MIA PaCa-2) [µM] | Activity (Staphylococcus aureus) | Activity (Escherichia coli) | Activity (Pseudomonas aeruginosa) | IC50 (MCF7) [µM] | IC50 (T47D) [µM]
27.5 | CCC[C@H]1OC(=O)/C=C\C=C\[C@H](O)[C@@H](O)[C@@H]1[C@H](C)COC(=O)c1ccc(O)cc1 | 22.1 | 26.8 | 59 | 63 | 48.3 | 14 | 20 | inactive | inactive | inactive | 30 | –
10.3 | CCC/C=C/[C@@H]1OC(=O)c2cc(O)cc(O)c2[C@@H]1O | 34.3 | 55 | 59 | 61 | 58 | > 50 | > 50 | inactive | inactive | inactive | > 50 | –
6.2 | O=C1O[C@H]([C@@H](O)CO)C(O)=C1O [ASCORBIC ACID] | 52.7 | 60.9 | 85.8 | 87.8 | 76.5 | – | – | – | – | – | – | –
